# Laboratory results taken from patent publication US20200352912A1, “ANTIMICROBIAL COMPOSITIONS AND METHODS OF USING THE SAME” (The Board Of Supervisors Of Louisiana State University And …, priority 2018, published 2020).
# What was measured:
# S. aureus NRS383 = assay: growth inhibition kinetics; type: cell-based, Staphylococcus aureus
# Method: Growth of S. aureus NRS383 was monitored for up to 24 h in medium alone or supplemented with DMSO or 50 μg/ml L-161, 982. After 6 h of coincubation, fresh L-161, 982 was added to growth medium (*). Data shown are representative of three independent experiments.
# We next investigated the kinetics of growth inhibition kinetics by L-161, 982 against S. aureus and drug stability. The minimum inhibitory concentration (MIC) of L-161, 982 against planktonic S. aureus was 50 μg/ml while the […] was 100 μg/ml. […] To address whether the loss of inhibition was due to drug degradation over time (half-life), or to adaptation of S. aureus cells to L-161, 982, fresh L-161, 982 (50 μg/ml) was added during the co-incubation.
# [1] = system: S. aureus mono-species biofilm; assay: biofilm formation on polystyrene (XTT, CFU); type: cell-based, Staphylococcus aureus
# Method: The effect of L-161,982 on biofilm formation was tested. Mono- and dual-species C. albicans and/or S. aureus biofilms were grown on 96-well plates for 24 h with the indicated concentration of L-161, 982. After incubation, metabolic activity of biofilms was quantified by the XTT assay (A) and then biofilms were disrupted to determine live colony forming units (CFU) (B). The results are cumulative of three independent experiments with duplicate samples. Statistics was performed using One-way ANOVA with the Tukey post-hoc test for the XTT assay. The Mann-Whitney U test was used to analyze CFU data. Significance is indicated as follows: ns—not significant, *P<0.05; *** P<0.001. Error bars represent standard deviation.
# Following growth as described above, microbes were washed in phosphate-buffered saline (PBS) by centrifugation, counted on a hemocytometer, and adjusted to 2×10^7 CFU/ml in RPMI buffered with MOPS (165 mM). For monomicrobial biofilms, 50 μl of adjusted C. albicans or S. aureus culture was added to each well of a sterile 96-well cell culture polystyrene microtiter plate (1×10^6 CFU per well); to this, 50 μl of sterile RPMI+MOPS was added. For polymicrobial biofilms, 50 μl of each organism was added per well (1×10^6 CFU of each organism per well). Plates were incubated for 24 h at 37° C. to induce biofilm formation. Following confirmation of mature biofilm growth by macro- and microscopic examination, plates were washed once with 200 μl sterile saline and then 200 μl RPMI+MOPS containing L-161, 982 at various concentrations (6.25-200 μg/ml) added to each well. L-161, 982-free RPMI+MOPS was added to wells with and without microbes to serve as positive and negative controls, respectively. […]
# (§1) The XTT reduction assay was used to determine the metabolic activity of biofilms following treatment with L-161, 982 (17). Briefly, wells were washed once in PBS, and plates incubated at 37° C. for 2 h with 200 μl XTT working reagent (0.5 mg/ml XTT and 1 μM Menadione) and the resulting absorbance measured at 490 nm on a microplate spectrophotometer. […]
# [2] = system: C. albicans pre-formed biofilm; assay: pre-formed mature biofilm (XTT, CFU); type: cell-based, Candida albicans; conditions: all concentrations tested, 24 h treatment
# Method: The effect of L-161, 982 on pre-formed mature biofilms was tested. Mono- and dual-species C. albicans and/or S. aureus biofilms were grown on 96-well plates for 24 h before being treated with the indicated concentration of L-161, 982 for a further 24 h. After treatment, metabolic activity of biofilms was quantified by the XTT assay (A) and then biofilms were disrupted to determine live colony forming units (CFU) (B). The results are cumulative of three independent experiments with duplicate samples. Statistics were performed using One-way ANOVA with the Tukey post-hoc test for the XTT assay. The Mann-Whitney U test was used to analyze CFU data. Significance is indicated as follows: ns—not significant, *P<0.05; *** P<0.001. Error bars represent standard deviation.
# Following growth as described above, microbes were washed in phosphate-buffered saline (PBS) by centrifugation, counted on a hemocytometer, and adjusted to 2×10^7 CFU/ml in RPMI buffered with MOPS (165 mM). […]
# as §1
# S. aureus = assay: colony phenotype on agar plates; type: cell-based, Staphylococcus aureus
# Source text: L-161, 982 inhibits activities associated with the electron transport chain including ATP production. In addition to the sulfonamide group, the chemical structure of L 161, 982 contains a urea group connected to two aryl groups (diarylurea) (FIG. 11). Urea derivatives are commonly used as herbicides, interfering with electron transport (17). […] SCVs typically lack a functional electron transport chain and cannot produce virulence factors such as hemolysins or the antioxidant pigment staphyloxanthin [reviewed in (19)]. […] These defects are all indicative of interruption of electron transport as carotenoid formation as well as toxin production is dependent on an active electron transport (18, 20, 21). During aerobic respiration, the force required for driving ATP synthesis requires a transmembrane electrical potential (membrane potential), which is generated by the electron transport chain.
smiles,measurement,setting,value
"CCCCc1nn(-c2ccccc2C(F)(F)F)c(=O)n1Cc1ccc(-c2ccccc2S(=O)(=O)NC(=O)c2sccc2C)cc1 [L-161, 982, N-[[4′-[[3-Butyl-1,5-dihydro-5-oxo-1-[2-(trifluoromethyl)phenyl]-4H-1,2,4-triazol-4-yl]methyl][1,1′-biphenyl]-2-yl]sulfonyl]-3-methyl-2-thiophenecarboxamide]","inhibition when fresh L-161, 982 is added during co-incubation","S. aureus NRS383; 50 μg/ml, fresh 50 μg/ml after 6 h",maintained inhibition over a 24 h period
same,duration of inhibitory effect on S. aureus,S. aureus NRS383; at the MIC of 50 μg/ml,≤ 8 h
same,"CFUs of S. aureus, biofilm formation",[1]; 6.25 to 25 μg/ml,significantly reduced
same,metabolic activity (XTT) during biofilm formation,"[1]; all concentrations tested, 24 h",significantly inhibited
same,"CFUs of S. aureus, biofilm formation",[1]; concentrations >50 μg/ml,no viable cells were recovered
same,metabolic activity of pre-formed biofilm,[2],no significant inhibitory effects
same,colony phenotype,S. aureus,grew as small colonies
